Experiments:
[1] = test system: wheat powdery mildew pathogen (Erysiphe graminis f. sp. tritici); assay: Wheat powdery mildew control test; format: in vivo; details: Blumeria graminis, 144 h; 125 ppm drug solution sprayed onto wheat seedlings (Chihoku); lesion area ratio 6 days after inoculation
Protocol: (§1) 5 parts by weight of the dihydropyrimidine compound of the present invention, 93.5 parts by weight of N,N-dimethylformamide, and 1.5 parts by weight of polyoxyethylene sorbitan monolaurate (TWEEN® 20) were mixed and dissolved to obtain an emulsion (I) including 5% of an active ingredient.
(§2) The control value was calculated by the following expression. Control value (%)=100−{lesion area ratio in treated group/lesion area ratio in untreated group}×100 [Expression 1]
Water was added to the emulsion (I) such that the concentration of the dihydropyrimidine compound reached 125 ppm to dissolve the emulsion, and a drug solution was obtained. Subsequently, the drug solution was sprayed onto wheat seedlings (variety: “Chihoku”, leaf stage: 1 to 2) cultivated in seedling pots. After air drying, conidiospores of a wheat powdery mildew pathogen (Erysiphe graminis f. sp. tritici) were sprinkled thereon for inoculation (treated group). As a control, wheat seedlings that were not sprayed with the drug solution were inoculated in the same manner as described above (untreated group). The seedlings were left to stand in a greenhouse at 20° C.
On the 6 days after the inoculation, the leaves of the wheat seedlings were visually observed to determine the lesion area ratio, and the control value was calculated.

[2] = test system: Aspergillus niger; assay: Antimicrobial test against Aspergillus niger; format: cell-based; details: 96 h, Vogel medium, 25° C., 4 days in the dark, turbidity at 405 nm, read-out: growth inhibition rate
Summary of the method: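 A. niger spores dispersed in Vogel medium with compound (DMSO solution) at 25 ppm, cultured in the dark at 25° C. for 4 days. Turbidity at 405 nm compared with untreated culture to give growth inhibition (%).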

[3] = test system: wheat brown rust pathogen (Puccinia recondita); assay: Wheat brown rust control test; format: in vivo; details: 288 h, 125 ppm drug solution sprayed onto wheat seedlings (Norin 61), lesion area ratio 12 days after inoculation
Protocol: as §1, §2
Water was added to the emulsion (I) such that the concentration of the dihydropyrimidine compound reached 125 ppm to dissolve the emulsion, and a drug solution was obtained. Subsequently, the drug solution was sprayed onto wheat seedlings (variety: “Norin 61”, leaf stage: 1 to 2) cultivated in seedling pots. After air drying, uredospores of a wheat brown rust pathogen (Puccinia recondita) were sprinkled on wheat seedlings sprayed with the drug solution for inoculation (treated group). As a control, wheat seedlings that were not sprayed with the drug solution were inoculated in the same manner as described above (untreated group). The seedlings were left to stand in a greenhouse at 20° C.
On the 12 days after the inoculation, the leaves of the wheat seedlings were visually observed to determine the lesion area ratio, and the control value was calculated.

[4] = test system: apple scab pathogen (Venturia inaequalis); assay: Apple scab control test; format: in vivo; details: 336 h, 125 ppm drug solution sprayed onto apple seedlings (Orin), lesion area ratio 2 weeks after inoculation
Summary of the method: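 Compound emulsion diluted in water to 125 ppm and sprayed on 3-4 leaf 'Orin' apple seedlings, which were inoculated with V. inaequalis conidiospores after drying and held humidified at 20° C, 12 h light/dark. Lesion area ratio scored 2 weeks post-inoculation; control value computed relative to unsprayed inoculated plants.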

[5] = test system: Meloidogyne incognita; assay: Efficacy against Meloidogyne incognita; format: in vivo; details: 96 h, second-instar larvae (L2), 40 μL of 125 ppm drug solution added to 160 μL suspension per well, 20° C., 4 days, read-out: nematode mortality rate
Protocol: as §1
A suspension containing about 50/0.16 mL second-instar larvae (L2) of Meloidogyne incognita was poured into a 96-well microplate at 160 μL per well. Then, a drug solution prepared by adding water to the emulsion (I) so as to have a concentration of the dihydropyrimidine compound of 125 ppm was poured at 40 μL per well. The plate was left to stand under a 20° C. condition for 4 days.
Mortality was determined, and the nematode mortality rate was calculated. […] The test repeated twice.

[6] = test system: wheat powdery mildew pathogen (Erysiphe graminis f. sp. tritici); assay: Wheat powdery mildew seed treatment test; format: in vivo; details: Blumeria graminis, 168 h; seed treatment 100 g/100 kg wheat seeds (Chihoku); inoculation after 8 to 10 days; lesion area ratio 7 days after inoculation
Protocol: as §1, §2
The emulsion (I) was used to treat seeds such that (weight of dihydropyrimidine compound)/(weight of seeds) reached 100 g/100 kg based on the wheat seeds (variety: “Chihoku”). These seeds were disseminated in pots, and after 8 to 10 days, conidiospores of a wheat powdery mildew pathogen (Erysiphe graminis f. sp. tritici) were sprinkled thereon for inoculation (treated group). As a control, wheat seedlings that were not treated with the drug were inoculated in the same manner as described above (untreated group). The seedlings were left to stand in a greenhouse at 20° C.
(§3) On the 7 days after the inoculation, the leaves of the wheat seedlings were visually observed to determine the lesion area ratio, and the control value was calculated.

[7] = test system: wheat powdery mildew pathogen (Erysiphe graminis f. sp. tritici); assay: Wheat powdery mildew soil irrigation treatment test; format: in vivo; details: Blumeria graminis, 168 h; soil irrigation with 10 ml of 100 ppm drug solution per pot, wheat (Chihoku); inoculation after 8 to 10 days; lesion area ratio 7 days after inoculation
Protocol: as §1, §2
Pots (5.5 cm×5.5 cm) in which wheat seeds (variety: “Chihoku”) were disseminated were irrigated with 10 ml of a drug solution prepared by adding water to the emulsion (I) so as to have a concentration of the dihydropyrimidine compound of 100 ppm. After 8 to 10 days, conidiospores of a wheat powdery mildew pathogen (Erysiphe graminis f. sp. tritici) were sprinkled thereon for inoculation (treated group). As a control, wheat seedlings that were not treated with the drug were inoculated in the same manner as described above (untreated group). The seedlings were left to stand in a greenhouse at 20° C.
as §3

[8] = test system: cucumber gray mold pathogen (Botrytis cinerea); assay: Cucumber gray mold control test; format: in vivo; details: 125 ppm drug solution sprayed onto cucumber seedlings (cotyledon stage); lesion area ratio 4 days after inoculation
Protocol: as §1, §2
Water was added to the emulsion (I) such that the concentration of the dihydropyrimidine compound reached 125 ppm to dissolve the emulsion, and a drug solution was obtained. Subsequently, the drug solution was sprayed onto cucumber seedlings (variety: “creeping” type, cotyledon stage) cultivated in seedling pots. After air drying, a suspension of conidiospores of a cucumber gray mold pathogen (Botrytis cinerea) was dropped thereon for inoculation (treated group). As a control, cucumber seedlings that were not sprayed with the drug solution were inoculated by dropping in the same manner as described above (untreated group). The seedlings were left to stand in a humidified room at 20° C.
On the 4 days after the inoculation, the leaves of the cucumber seedlings were visually observed to determine the lesion area ratio, and the control value was calculated.

COc1ccc(F)cc1C(Cn1cc(C=NOC(C)C)c(=O)n(C(C)C(=O)NC(C)C)c1=O)OCCC#N (stereo not drawn) [A-14, 2-(3-(2-(2-cyanoethoxy)-2-(5-fluoro-2-methoxyphenyl)ethyl)-5-((isopropoxyimino)methyl)-2,6-dioxo-3,6-dihydropyrimidin-1(2H)-yl)-N-isopropylpropanamide]
pest or weed control at 125 ppm [1]: ≥ 75% | inhibition at 25 ppm [2]: ≥ 50% | pest or weed control at 125 ppm [3]: ≥ 75% | pest or weed control at 125 ppm [4]: ≥ 75%

CCON=Cc1cn(CC(OCCC#N)c2cc(F)ccc2OC)c(=O)n(C(C)C(=O)NC(C)C)c1=O (stereo not drawn) [A-23]
pest or weed control at 125 ppm [1]: ≥ 75% | inhibition at 25 ppm [2]: ≥ 50% | pest or weed control at 125 ppm [3]: ≥ 75% | pest or weed control at 125 ppm [4]: ≥ 75%

CCO/N=C(\C)c1cn(CC(OCCC#N)c2cc(F)ccc2OC)c(=O)n(CC(C)(C)C(=O)NC(C)C)c1=O (stereo not drawn) [A-24]
pest or weed control at 125 ppm [1]: ≥ 75% | inhibition at 25 ppm [2]: ≥ 50% | pest or weed control at 125 ppm [3]: ≥ 75% | pest or weed control at 125 ppm [4]: ≥ 75%

CON=C(C)c1cn(CC(O)c2cc(F)ccc2OC)c(=O)n(C(C)C(=O)NC(C)C)c1=O (stereo not drawn) [A-28]
mortality at 125 ppm [5]: ≥ 60%

COc1ccc(F)cc1C(Cn1cc(C=NOC(C)C)c(=O)n(C[C@H](C)NC(=O)C(C)C)c1=O)OCCC#N (stereo partly drawn) [A-60]
pest or weed control at 100 g/100 kg seed [6]: ≥ 75% | pest or weed control at 100 ppm [7]: ≥ 75% | pest or weed control at 125 ppm [1]: ≥ 75% | inhibition at 25 ppm [2]: ≥ 50% | pest or weed control at 125 ppm [3]: ≥ 75% | pest or weed control at 125 ppm [4]: ≥ 75%

COc1ccc(F)cc1C(Cn1cc(/C(C)=N/OC(C)C)c(=O)n(C[C@H](C)NC(=O)C(C)C)c1=O)OC (stereo partly drawn) [A-61]
pest or weed control at 100 g/100 kg seed [6]: ≥ 75% | pest or weed control at 125 ppm [1]: ≥ 75% | inhibition at 25 ppm [2]: ≥ 50% | pest or weed control at 125 ppm [3]: ≥ 75% | pest or weed control at 125 ppm [4]: ≥ 75%

COc1ccc(F)cc1C(Cn1cc(/C(C)=N/OC(C)C)c(=O)n(C[C@H](C)NC(=O)C(C)C)c1=O)OCCC#N (stereo partly drawn) [A-63]
pest or weed control at 125 ppm [1]: ≥ 75% | inhibition at 25 ppm [2]: ≥ 50% | pest or weed control at 125 ppm [3]: ≥ 75% | pest or weed control at 125 ppm [4]: ≥ 75%

C=C1CCN(C(=O)C(C)n2c(=O)c(C=NOC(C)C)cn(CC(OCCC#N)c3cc(F)ccc3OC)c2=O)CC1 (stereo not drawn) [A-64]
mortality at 125 ppm [5]: ≥ 60% | pest or weed control at 125 ppm [3]: ≥ 75%

COc1ccc(F)cc1C(O)Cn1cc(/C(C)=N/OC(C)C)c(=O)n(C[C@H](C)NC(=O)C(C)C)c1=O (stereo partly drawn) [A-75, N-((2S)-1-(3-(2-(5-fluoro-2-methoxyphenyl)-2-hydroxyethyl)-5-((E)-1-(isopropoxyimino)ethyl)-2,6-dioxo-3,6-dihydropyrimidin-1(2H)-yl)propan-2-yl)isobutyramide]
pest or weed control at 100 g/100 kg seed [6]: ≥ 75% | pest or weed control at 100 ppm [7]: ≥ 75% | Control value [8]: ≥ 75% | pest or weed control at 125 ppm [1]: ≥ 75% | inhibition at 25 ppm [2]: ≥ 50% | pest or weed control at 125 ppm [4]: ≥ 75%

COc1ccc(F)cc1C(O)Cn1cc(C=NOC(C)C)c(=O)n(C[C@H](C)NC(=O)C(C)C)c1=O (stereo partly drawn) [A-76]
pest or weed control at 100 g/100 kg seed [6]: ≥ 75% | pest or weed control at 100 ppm [7]: ≥ 75% | pest or weed control at 125 ppm [1]: ≥ 75% | inhibition at 25 ppm [2]: ≥ 50% | pest or weed control at 125 ppm [3]: ≥ 75% | pest or weed control at 125 ppm [4]: ≥ 75%

COc1ccc(F)cc1C(Cn1cc(C=NOC(C)C)c(=O)n(C(C)C(=O)NC2CC2)c1=O)OCCC#N (stereo not drawn) [A-80]
pest or weed control at 125 ppm [1]: ≥ 75% | inhibition at 25 ppm [2]: ≥ 50% | pest or weed control at 125 ppm [3]: ≥ 75% | pest or weed control at 125 ppm [4]: ≥ 75%

COc1ccc(F)cc1C(O)Cn1cc(C=NOC(C)C)c(=O)n(C(C)C(=O)NC(C)C)c1=O (stereo not drawn) [A-93]
pest or weed control at 125 ppm [1]: ≥ 75% | inhibition at 25 ppm [2]: ≥ 50% | pest or weed control at 125 ppm [3]: ≥ 75% | pest or weed control at 125 ppm [4]: ≥ 75%

C=CCOC(Cn1cc(/C(C)=N/OCC)c(=O)n(CCNC(=O)C(C)C)c1=O)c1cc(F)ccc1OC (stereo not drawn) [A-95]
pest or weed control at 125 ppm [1]: ≥ 75% | inhibition at 25 ppm [2]: ≥ 50% | pest or weed control at 125 ppm [3]: ≥ 75% | pest or weed control at 125 ppm [4]: ≥ 75%

COc1ccc(F)cc1C(Cn1cc(/C(C)=N/OC(C)C)c(=O)n(CCNC(=O)C(C)C)c1=O)OC (stereo not drawn) [A-100]
pest or weed control at 125 ppm [1]: ≥ 75% | inhibition at 25 ppm [2]: ≥ 50% | pest or weed control at 125 ppm [3]: ≥ 75% | pest or weed control at 125 ppm [4]: ≥ 75%

CC[C@@H](Cn1c(=O)c(/C(C)=N/OC(C)C)cn(CC(O)c2ccccc2OC)c1=O)NC(=O)C(C)C (stereo partly drawn) [C-92]
mortality at 125 ppm [5]: ≥ 60%

COc1ccc(Br)cc1C(O)Cn1cc(/C(C)=N/OC(C)C)c(=O)n(C[C@H](C)NC(=O)C(C)C)c1=O (stereo partly drawn) [C-145]
mortality at 125 ppm [5]: ≥ 60%

From US12593845B2 (priority 2019, dated 2026)
